Results taken from PubChem BioAssay AID2305 (GlaxoSmithKline (GSK), 2010).

system: P. falciparum 3D7 growth, pLDH absorbance; assay: blood-stage malaria parasite growth potency – strain 3D7, dose response (AID 2305)

In order of falling IC50:
1. COc1ccccc1CN1CCC(NC(=O)c2ccc(-c3cccc(Cl)c3)s2)CC1  1420 nM
2. CCCNCc1ccc(-c2ccc(CN(Cc3cnc(C)cn3)C(=O)CC#N)cc2)nc1  1220 nM
3. Clc1cc(Nc2ncnc3sc(C#Cc4ncc[nH]4)cc23)ccc1OCc1ccccn1  1110 nM
4. CN1CC[C@@H](Oc2cc(NC(=O)Nc3ccccc3Br)ccc2Cl)C1  1100 nM
5. COc1ccc(-c2ccc(NC(=O)c3ccc(Cl)cc3)cc2)cc1CN1CCC(O)CC1  1090 nM
6. Fc1cccc(Nc2nc(NCc3ccc4ccsc4c3)nc(Nc3cccc(F)c3)n2)c1  1080 nM
7. CN(C)c1ccc(CN2CCC(NC(=O)c3ccc(-c4ccc(N(C)C)cc4)s3)CC2)cc1  1070 nM
8. O=C(Nc1nc(-c2ccccn2)cs1)c1ccc(Br)s1  1060 nM
9. COc1ccc2ncc(C#N)c(CCN3C[C@H](CNCc4ccccc4)[C@H](O)C3)c2n1  1060 nM
10. CCOc1cc2ncnc(Nc3ccc(OCc4c(Cl)cccc4Cl)c(OC)c3)c2cc1OCC  1050 nM
11. O=C(COc1ccccc1)Nn1cnc2ccccc21  1050 nM
12. CCOC(=O)C1CCN(CCCNC(=O)/C(=C/C=C/c2cc3cc(Cl)c(Cl)cc3[nH]2)OC)CC1  1040 nM
13. CCCCN1C(=O)C(c2ccccc2)(c2ccccc2)N=C1N  1030 nM
14. COc1cc(C)cc(CN2CCC(Cc3ccccc3)CC2)c1O  1020 nM
15. O=C(C=Cc1ccc(Cl)c(Cl)c1)NCCCCCN1CCCC(CCCNS(=O)(=O)c2cccc3cccnc23)C1 (centres undefined)  1000 nM
16. Cc1ccn2c(N(Cc3ccccc3)C(=O)c3ccc(Cl)c(Cl)c3)c(-c3ccccc3)nc2c1  990 nM
17. NC(=O)COc1c(C2CCN(CCN3CCC(CNC(=O)c4ccc(-c5ccc(C(F)(F)F)cc5)cc4)CC3)CC2)ccc2c1CCCC2  970 nM
18. O=C(c1ccc([N+](=O)[O-])o1)N1CCN(c2nc3c(F)cc(F)cc3s2)CC1  970 nM
19. CC1CCCN(Cc2cc(Cl)cc(Cl)c2O)C1 (centres undefined)  930 nM
20. N#Cc1ccc(N(CC(=O)NCCc2ccc(F)cc2)CC2CC2)c2ccccc12  930 nM
21. O=C(O)c1ccc2c(c1)N(C(=O)CNCc1ccc(F)cc1)CC(=O)N2CCCc1ccccc1  920 nM
22. CC1CN(Cc2ccc(-c3cccc(-c4nc5ccc(F)cc5[nH]4)c3)cc2)CC(C)O1 (centres undefined)  920 nM
23. COc1ccc(NC(=O)/C=C/c2ccccc2Cl)cc1OCCN1CCC(Cc2cc3ccccc3[nH]2)CC1  900 nM
24. CCc1cc([C@H]2O[C@@H](n3cnc4c(NCC(c5ccccc5)c5ccccc5)nc(NCCNc5ccccn5)nc43)[C@H](O)[C@@H]2O)on1  890 nM
25. Cc1nc(-c2nc(NCCc3cnccn3)ncc2-c2ccsc2)sc1C  880 nM
26. O=C(NCc1cccc(Cl)c1)c1ccc(CNC2CCN(Cc3ccccc3)CC2)cc1  880 nM
27. Cc1cc(NCC2CCN(CC3CCCCC3)C2)nc(Nc2ccc(Br)cc2)n1 (centres undefined)  880 nM
28. N=c1n(Cc2ccccc2)c2ccccc2n1CC(O)c1ccc(Cl)cc1 (centres undefined)  880 nM
29. COc1ccccc1CCNc1nc(C)cc(N[C@@H](Cc2ccccc2)C(=O)NCc2cccc(F)c2)n1  870 nM
30. CCC1=C[C@@H]2CN(C1)Cc1c([nH]c3ccccc13)[C@@](C(=O)OC)(c1cc3c(cc1OC)N(C)[C@H]1[C@@](O)(C(=O)OC)[C@H](O)[C@]4(CC)C=CCN5CC[C@]31[C@@H]54)C2  870 nM
31. O=c1cc(NCCCNCc2sc(Br)nc2Br)[nH]c2ccccc12  870 nM
32. Cc1cc(=O)c2cc(Oc3cccc(OC(F)(F)F)c3)ccc2[nH]1  860 nM
33. O=C(Nc1ccc(CN2CCOCC2)cc1)c1ccc(-c2ccc(Cl)cc2)o1  860 nM
34. Cc1ccnc(NC(c2cccc(OCc3ccccc3)c2)c2ccc3cccnc3c2O)c1 (centres undefined)  860 nM
35. O=C(Nc1ccc(C(F)(F)F)cc1)c1cccc(S(=O)(=O)NC2CCN(CC3CCCCC3)CC2)c1  850 nM
36. Cc1nnsc1C(=O)Nc1ccc(-c2cccc(-c3nc4ccc(C(F)(F)F)cc4[nH]3)c2)cc1  840 nM
37. COc1ccc(CNC2CCN(C)CC2)cc1-c1ccc(S(=O)(=O)NC2CCC2)c(F)c1  840 nM
38. CCn1c(-c2nonc2N)nc2c(-c3cccc(NC(=O)Nc4ccc(Cl)cc4)c3)ncc(OCCCN)c21  830 nM
39. CC(C)(C)c1ccc(Cc2cccc3nc(N)nc(N)c23)cc1  830 nM
40. CC1(C)CC(NCCCCCCCOc2ccc(OCc3ccccc3)cc2)CC(C)(C)N1  830 nM
41. CN(C)CCN(Cc1ccc(-c2ccc(CNCCc3ccccc3)cc2)nc1)C(=O)CCC1CCCC1  800 nM
42. CN1CCC(Oc2ccc(CN3CC[C@H](NC(=O)c4cccc(C#N)c4)C3)c3ccccc23)C1 (some centres undefined)  800 nM
43. CCCCC1(NC(=O)[C@H](CC(C)C)Nc2ccc(C#N)c3ccccc23)CCCCC1  800 nM
44. Cc1ccc2nc(C)cc(Nc3ccccc3O)c2c1  790 nM
45. COC(=O)CCCOc1cc(Cc2cnc(N)nc2N)cc(OC)c1OC  770 nM
46. COc1ccc2nccc([C@@H](O)CN3CCC(NCc4cc5oc(=O)[nH]c5cc4F)CC3)c2c1  770 nM
47. CCOc1ccc(C(=O)Nc2cc(Br)c3c(c2)CNCC3)cc1C#N  760 nM
48. COc1ccccc1NC(=O)NC1CCN(CCCCCNC(=O)/C=C/c2ccc(Cl)c(Cl)c2)CC1  750 nM
49. Cc1nc(-c2ccc(-c3ccc(C(=O)Nc4ccc(Cl)c(N5CCN(C)CC5)c4)cc3)c(C)c2)no1  740 nM
50. CS(=O)(=O)CCNCc1ccc(-c2ccc3c(Nc4ccc(F)cc4Cl)ccnc3c2)o1  740 nM
51. CS(=O)(=O)Nc1ccc2[nH]cc(C3CCN(CCCCCNC(=O)/C=C/c4ccc(Cl)c(Cl)c4)CC3)c2c1  740 nM
52. COc1ccc2nc(C)cc(Nc3ccc(Oc4ccc(Cl)c5ccccc45)c(Cl)c3)c2c1  730 nM
53. COc1cc(C=NNc2cc(C)nc3ccccc23)cc(OC)c1OC  730 nM
54. Cc1sc(CNCCCNc2cc(=O)c3ccccc3[nH]2)c(C(F)(F)F)c1C  730 nM
55. CC(CO)(CO)NCc1cc2c3ccccc3c(CNC(C)(CO)CO)cc2c2ccccc12  720 nM
56. CC(C)NCc1ccc(-c2ccc(CN3CCCC(c4ccccc4)C3)cc2)c(C(=O)NCC2CCCCC2)c1 (centres undefined)  720 nM
57. COc1ccccc1N1CCN(CCCCN(C(=O)Nc2cccc(Cl)c2)C(=O)Nc2cccc(Cl)c2)CC1  710 nM
58. CCOC(=O)c1ccc(NC(=O)N[C@@H](Cc2ccccc2)C(=O)NC2CCN(Cc3ccc(OCCCN(C)C)cc3)C2)cc1 (some centres undefined)  700 nM
59. CCCCCCOc1ccc(C(=O)N[C@H]2CCN(CCCCCNC(=O)/C=C/c3ccc(Cl)c(Cl)c3)C2)cc1  690 nM
60. CCc1ccc(NC(=O)c2ccc(CN3CCCN(Cc4cccc(O)c4)CC3)cc2)cc1  670 nM
61. CC(C)CCn1c(Sc2ccc(C#N)c([N+](=O)[O-])c2)nnc1-c1cccc(Cl)c1  670 nM
62. N#CCCN1CCN(Cc2ccc(-c3ccc(-c4nc5ccc(F)cc5[nH]4)s3)cc2)CC1  660 nM
63. O=C(C=Cc1ccc(Cl)c(Cl)c1)NCCCCCN1CCC(c2[nH]nc3ccccc23)CC1  640 nM
64. NC1=NC(C=Cc2ccccc2)N(OCCCCCCON2C(N)=NC(N)=NC2C=Cc2ccccc2)C(N)=N1 (centres undefined)  610 nM
65. CC(=O)N(C)C1CCN(Cc2ccc(-c3cccc(-c4nc5ccc(F)cc5[nH]4)c3)cc2)C1 (centres undefined)  600 nM
66. O=C(NCCCNc1ccc2ccccc2n1)c1cc2c(Cl)cc(Cl)cc2[nH]1  600 nM
67. Cc1cc(NC(=O)Nc2ccc(C#N)cc2)c2ccccc2n1  570 nM
68. O=C(Nc1ccc(Oc2ccccc2)cc1)NC1CCC(CN2CCC(c3c[nH]c4ccccc34)CC2)CC1 (centres undefined)  570 nM
69. COc1cc(NC(=O)c2sc(-c3ccc(Cl)cc3)cc2NC(=O)N2CCCC2)ccc1OCCN1CCCC1  570 nM
70. Cn1cnc2c(SCc3ccc(OCc4ccccc4)cc3)ncnc21  560 nM
71. CCn1ccc2c(N3CCCS3(=O)=O)cc(C(=O)N[C@@H](Cc3ccccc3)[C@H](O)CNC(C)(C)CCCC(C)C)cc21  490 nM
72. CCNc1cc(C(=O)N[C@@H](Cc2ccccc2)[C@H](O)CNCC(C)C)cc(N2CCCC2=O)c1  490 nM
73. CS(=O)(=O)Nc1ccc(OCCCCCCOc2ccc(NS(C)(=O)=O)cc2)cc1  490 nM
74. CCCNC(=O)CN1CN(c2ccccc2)C2(CCN(C(=O)c3ccc(C(C)(C)C)cc3)CC2)C1=O  470 nM
75. CN(CCCCCN1CCC(NC(=O)Nc2ccc(Oc3ccccc3)cc2)C1)C(=O)/C=C/c1ccc(Cl)c(Cl)c1 (centres undefined)  420 nM
76. O=C(NCC1CC1)C1CCN(C(c2ccccc2)c2ccc(Cl)c(Cl)c2)CC1 (centres undefined)  370 nM
77. O=C(c1cc(-c2ccco2)[nH]n1)N1CCN(S(=O)(=O)c2ccc(Cl)cc2)CC1  360 nM
78. COc1cc(C(=O)N2CCOC(CCN3CCc4c(c5ccccc5n4C)C3)(c3ccc(Cl)c(Cl)c3)C2)cc(OC)c1OC (centres undefined)  360 nM
79. CC(C)(C)c1ccc(NC(=O)N[C@@H]2CCN(c3ccnc4ccccc34)C2)cc1  350 nM
80. COc1ccc(/C=C/c2ccc(-c3c(C)[nH]c(C)c(Cl)c3=O)cc2)cc1OC  280 nM
81. CCOc1ccc(-c2nonc2NC(=O)c2ccccc2)cc1OCC  260 nM
82. O=C(Nc1cccc(-c2nn3ccccc3c2-c2ccnc(Nc3cccc(-c4cnco4)c3)n2)c1)C1CCCCC1  260 nM
83. COc1ccc2nccc([C@@H](O)CN3CCC(NC(=O)C(c4cc5ccccc5o4)N4CCC(Cc5ccccc5)CC4)CC3)c2c1 (some centres undefined)  250 nM
84. Cc1c(CN2CCCCC2)cccc1OCCCNc1nc(NCCc2ccc(O)cc2)nc(N2CCNCC2)n1  220 nM
85. O=C(Nc1ccc(Cl)cc1)Nc1cccc(-c2cccc(-c3nc4ccc(F)cc4[nH]3)c2)c1  220 nM
86. CCN(CC)c1cc(C)c2cc(NC(=O)c3cc(=O)c4ccccc4o3)ccc2n1  220 nM
87. CCN(CC)c1ccccc1CNC(=O)c1cc(Cl)c(N)cc1OC  210 nM
88. COC(=O)c1cccc(CNCc2cccc(-c3cccc(-c4nc5c(C)cccc5[nH]4)c3)c2)c1  190 nM
89. FC(F)(F)c1ccc2nc(-c3ccc(-c4ccc(CNCC5CCCO5)cc4)s3)[nH]c2c1 (centres undefined)  160 nM
90. Fc1ccc2nc(-c3ccc(-c4ccc(CN5CCC(CCN6CCCCC6)CC5)cc4)s3)[nH]c2c1  140 nM
91. Cc1[nH]c(C)c(-c2ccc(CCc3cccc(C(F)(F)F)c3)nc2)c(=O)c1Cl  100 nM
92. CC[C@H]1CN2CC[C@@H]1C[C@H]2[C@H](O)c1cc(N2CCC(O)(c3ccccc3)CC2)nc2ccc(OC)cc12  90 nM
93. COc1ccc2nccc([C@@H](O)CN3CCC(NCc4cc5c(Cl)cc(Cl)cc5[nH]4)CC3)c2c1  60 nM
94. CCc1cn2c3c(cc(C(=O)N[C@@H](Cc4cccc(F)c4)[C@H](O)CNC4CCCCC4)cc13)N(C)S(=O)(=O)CC2  30 nM
